The values that follow come from patent US7041276B2, “Methods of screening agents for activity using teleosts” (priority 1998, dated 2006).

In data set [1] the test system is mice and rats. As to conditions: TOXNET Web Search and other sources; cited from earlier work.
The test system of data set [2] is liver of zebrafish embryos. The data set is described as follows: Liver staining with streptavidin-peroxidase (DAB visual, ABTS colorimetric). In kind it is in vivo. The text has this: Toxic activity in the liver of the treated whole animal can be assessed visually by using a rapid colorimetric staining procedure. This procedure is based on the use of a streptavidin (avidin) conjugated reporter enzyme, such as peroxidase, to detect naturally biotinylated carboxylase enzymes in the liver, gut, and digestive tube of whole animals, such as zebrafish embryos. These biotinyl-lysine containing enzymes, such as acetyl-CoA carboxylase and other carboxylases, are predominantly located in the liver and digestive tube. As a result, staining is organ specific (FIG. 11). Quantitative biotinylated assessment of the liver can be made. By visual detection of biotinylation, size and location of the liver can be determined.
Zebrafish embryos (4, 5 or 6 days old) were fixed with 4% paraformaldehyde for 1 hour at room temperature and treated with methanol 100% overnight at −20° C. The embryos were rehydrated and washed with PBST. […] The embryos were then washed twenty minutes three times with PBST and stained for peroxidase with two different dyes: Diaminobenzidine (DAB) (Pierce) (insoluble) to assess liver staining and 2,2′-Azino-bis(3-Ethylbenz-thiazoline-6-sulfonic acid)(ABTS)(Sigma)(soluble) to measure a quantitative visual signal using a colorimetric method. […] The ABTS signal was detected by measuring the absorbance of the solution at 405 nanometer […] using a spectrophotometer. […]

Data set [3] relates to zebrafish embryos. In words: Five-day zebrafish toxicity testing. The format is in vivo. To be noted: for Zebrafish specific toxicity observed: five-day exposure. The protocol: Fertilized zebrafish embryos were obtained by natural spawning in our aquaculture facility. To reduce variations between batches, randomized samples of embryos from 3 or 4 independent matings were used. The test medium was prepared by combining 5 g of Instant Ocean Salt with 3 g of CaSO4 in 25 liters of distilled water, according to Westerfield, supra. The embryos were maintained in the test medium throughout the experiments. Embryos at 24 hours of development (with chorion) were exposed continuously for five days to chemical compounds at different concentrations of the chemical compounds and controls. In general, the concentrations ranged from 100 nanomolar (nM) to 100 micromolar (μM). Tests were repeated four times for each series of dilutions, and a standard deviation was calculated for each treatment (see “Statistical Methods” section). Ten embryos per concentration were exposed in a total volume of 1 ml (constant ratio of 100 μl/embryo) using a 24 multi-well plate. (Other sizes of multi-well plates, such as 96-well plates can also be used to facilitate screening.) The compounds were renewed daily. In all cases, 0.1% of dimethyl sulfoxide (DMSO) was used as a carrier solvent during the treatment. Controls with and without 0.1% DMSO were performed in all experiments. This approach has long been used to introduce anesthetics and other chemicals into fish embryos (Westerfield, supra).
Experiments were carried out at a constant temperature (28–28.5° C.) in the dark to protect the compounds from decomposition due to light exposure. Dead embryos were removed daily, counted, and used to calculate the Median Lethal Concentration (LC50, see “Statistical Methods” section herein). Each day, surviving embryos were analyzed visually under a dissecting binocular microscope (Zeiss, amplification 30–50×). Macroscopic malformations (such as axial defects, embryolethality, growth inhibition, general malformations, including microcephaly, macrocephaly, tail truncation, tail malformation, loss of axial structures, such as somites, etc.) were observed, classified, and counted to assess whole animal toxicity. Compounds that were lethal or induced these or any noted malformations or disruptions during development (e.g., during the first 5 days of development) were further examined for toxic effects on organs. The embryonic developmental stage that is affected by the toxic compound can be determined. Organ toxicity can be assessed in surviving embryos using in situ hybridization, enzymatic assays, and immunochemistry procedures.
Toxic activity in the kidney (Pronephros) can be assessed visually by colorimetric staining of the kidney of the treated whole animal (e.g., zebrafish). Zebrafish pronephros express high levels of the enzyme alkaline phosphatase that can be easily assayed using a chromogenic dye. To stain kidneys in zebrafish embryos, embryos were fixed with 2% paraformaldehyde overnight at 4° C. and then treated with methanol 100% for 30 minutes at room temperature. […]
For the concentrations tested with aspirin and dexamethasone in these studies, there was no partial lethality and the geometric mean of the parameters “no mortality” (0%) and “mortality” (100%) of the effect concentration was taken as the LC50 and binomial confidence limits were calculated according to Stephan, “Methods for Calculating LD50” in Aquatic Toxicology and Hazard Evaluation (F. L. Mayce and J. L. Hamelink eds.) ASTM STP 634, pp. 65–84. […]

In data set [4] the test system is rats. As to conditions: i.p. (intraperitoneal); cited from earlier work.
The test system of data set [5] is mice. As to conditions: i.p. (intraperitoneal); cited from earlier work.

“Also recorded” adds a separate entry of the source.

Regarding `C[C@@H]1C[C@H]2[C@@H]3CCC4=CC(=O)C=C[C@]4(C)[C@@]3(F)[C@@H](O)C[C@]2(C)[C@@]1(O)C(=O)CO` [Dexamethasone], the “Mammalian models specific toxicity (from the literature)” value in data set [1] was “liver,; also recorded: gastro-”. Besides, in data set [2] (100 μM for five days, six day old embryo), the “liver size compared with control embryos” value is reported as “dramatic reduction in liver size”. In addition, in data set [2] (100 μM, five days), the “reduction of the colorimetric liver signal (ABTS, 405 nm) compared with untreated embryos” value is recorded as “about 70%”. Also, the “Zebrafish LD50” value in data set [3] (embryos exposed continuously for five days from 24 hours of development) turned out to be 324 mg/L. Also, the “Zebrafish specific toxicity observed” value in data set [3] was “liver,; also recorded: gastro-”; in data set [3] (listed as dexamethasone) it was “Liver and gastrointestinal toxicity”. In addition, the “Mammalian models LD50” value is given as 54 (rats, i.p.) mg/kg in data set [4] and 410 (mice, i.p.) mg/kg in data set [5].
